According to patent US9192666B2, “Method of treating cancer using anti-c-Met antibody and FGFR inhibitor combination therapy” (Samsung Electronics Co., Ltd., priority 2013, dated 2015):

B1: L3-1Y/IgG2: anti-c-Met antibody: huAbF46-H4-A1 heavy chain variable region, human IgG2 hinge and constant region, kappa light chain (antibody)
heavy: EVQLVESGGGLVQPGGSLRLSCAASGFTFTDYYMSWVRQAPGKGLEWLGFIRNKANGYTTEYSASVKGRFTISRDNSKNTLYLQMNSLRAEDTAVYYCARDNWFAYWGQGTLVTVSSASTKGPSVFPLAPCSRSTSESTAALGCLVKDYFPEPVTVSWNSGALTSGVHTFPAVLQSSGLYSLSSVVTVPSSNFGTQTYTCNVDHKPSNTKVDKTVERKCCVECPPCPAPPVAGPSVFLFPPKPKDTLMISRTPEVTCVVVDVSHEDPEVQFNWYVDGVEVHNAKTKPREEQFNSTFRVVSVLTVVHQDWLNGKEYKCKVSNKGLPAPIEKTISKTKGQPREPQVYTLPPSREEMTKNQVSLTCLVKGFYPSDIAVEWESNGQPENNYKTTPPMLDSDGSFFLYSKLTVDKSRWQQGNVFSCSVMHEALHNHYTQKSLSLSPGK
light: DIQMTQSPSSLSASVGDRVTITCKSSQSLLASGNQNNYLAWYQQKPGKAPKMLIIWASTRVSGVPSRFSGSGSGTDFTLTISSLQPEDFATYYCQQSYSRPYTFGQGTKVEIKRTVAAPSVFIFPPSDEQLKSGTASVVCLLNNFYPREAKVQWKVDNALQSGNSQESVTEQDSKDSTYSLSSTLTLSKADYEKHKVYACEVTHQGLSSPVTKSFNRGEC

Assays:
[1] = system: L3-1Y/IgG2 resistant MKN45 cells; test: Cell viability in L3-1Y/IgG2 resistant MKN45 cells; assay type: cell-based; conditions: 72 hours, PD173074 10 uM, BGJ398 5 uM
Method: To verify that the co-treatment with a FGFR inhibitor allows overcoming a L3-1Y/IgG2 resistance acquired by repeated treatment of L3-1Y/IgG2, L3-1Y/IgG2 resistant cells were prepared by treating L3-1Y/IgG2 to MKN45 gastric cancer cell line for at least 3 months, and used for the following experiment. The L3-1Y/IgG2 resistant cells were prepared as follows: MKN45 cells (JCRB, JCRB0254) were treated with L3-1Y/IgG2, where the concentration of treated L3-1Y/IgG2 was increased from 1 ug/ml to 10 ug/ml, until the resistance is acquired. To verify the acquirement of resistance to L3-1Y/IgG2, the resistance acquired clones were cultured with or without L3-1Y/IgG2 treatment, and at 72 hours after the treatment, the cell number was measured by CellTiter Glo assay (Promega, G7573), referring to the above example,
The synergistic effect of co-treatment of a FGFR inhibitor and L3-1Y/IgG2 was verified as follows. The prepared L3-1Y/IgG2 resistant MKN45 cells were seeded at the amount of 5,000 cells/well on 96 well plate to which RPMI1640 medium (GIBCO) supplemented with 10% FBS is added, and incubated overnight at 37° C. Next day (24 hours after), the incubated cells were treated with L3-1Y/IgG2 alone or together with FGFR inhibitor, PD173074 or BGJ398. For the treatment of L3-1Y/IgG2 only, the concentration of L3-1Y/IgG2 was 0 ug/ml, 0.016 ug/ml, 0.08 ug/ml, 0.4 ug/ml, or 2 ug/ml, and for the co-treatment, the concentration of the FGFR inhibitor was fixed and the concentration of L3-1Y/IgG2 was 0 ug/ml, 0.016 ug/ml, 0.08 ug/ml, 0.4 ug/ml, or 2 ug/ml. The concentration of the FGFR inhibitor was fixed at 10 uM for PD173074 and 5 uM for BGJ398.
(§1) At 72 hours after the single treatment or the co-treatment, 100 uL of CellTiter Glo solution (Promega, G7572) was added to each well, and left for 30 minutes at room temperature. The cell number was counted by emission signal, and the emission signal was recorded using Envision 2104 Multi-label Reader (Perkin Elmer).

[2] = system: L3-1Y/IgG2 resistant EBC1 cells; test: Cell viability in L3-1Y/IgG2 resistant EBC1 cells; assay type: cell-based; conditions: 72 hours, BGJ398 5 uM
Method: To verify that the co-treatment with a FGFR inhibitor allows overcoming a L3-1Y/IgG2 resistance acquired by repeated treatment of L3-1Y/IgG2, L3-1Y/IgG2 resistant cells were prepared by treating L3-1Y/IgG2 to EBC1 lung cancer cell line for at least 3 months, and used for the following experiment. The EBC1 lung cancer cell line acquiring the resistant to L3-1Y/IgG2 was prepared referring to Example 4.
The synergistic effect of co-treatment of a FGFR inhibitor and L3-1Y/IgG2 was verified as follows. The prepared L3-1Y/IgG2 resistant EBC1 cells were seeded at the amount of 5,000 cells/well on a 96 well plate to which RPMI1640 medium (GIBCO) supplemented with 10% FBS is added, and incubated overnight at 37° C. Next day (24 hours after), the incubated cells were treated with L3-1Y/IgG2 alone or together with FGFR inhibitor, BGJ398. […]
as §1

[3] = system: MKN45 gastric cancer cells; test: Tumor xenograft model of MKN45 gastric cancer cell line; assay type: in vivo, BALB/c nude mice; conditions: 21st day after treatment vs vehicle, BGJ398 10 mg/kg P.O. once a day, L3-1Y/IgG2 1 mg/kg I.V. once a week
Method: To verify the in vivo effect of the co-administration on tumor growth, a tumor xenograft model was prepared using male 5-6 week-old BALB/c nude mice (Pharmalegacy, China). The mice were adapted at least one week before inoculation of tumor cells.
Then, the mice were anesthetized with 1-2% isofurane, and MKN45 gastric cancer cells (JCRB, JCRB0254) were subcutaneously injected into right flank of the mice at the amount of 5×10^6 cells/each mouse. 7 days after, when the average size of tumor reaches 50 mm^3 or more, the mice were grouped into the following groups: a group treated with BGJ398 (10 mg/kg P.O., once a day), a group treated with L3-1Y/IgG2 (1 mg/kg I.V., once a week), a group co-treated with L3-1Y/IgG2 (1 mg/kg, I.V., once a week) and BGJ398 (10 mg/kg, P.O., once a day), and a group (control) treated with vehicle (PBS 0.2 ml, I.V., once a week). Each group consisted of 10 mice.
The experiment was performed for 4 weeks in total, and tumor size and body weight of the mice were measured twice a week. The tumor volume (V) was calculated by the following formula: V(mm^3)={length of long axis(mm)×(length of short axis(mm))^2}/2.

[4] = system: MKN45 gastric cancer cells; test: Cell viability (CellTiter Glo) in MKN45 gastric cancer cell line; assay type: cell-based; conditions: for cell growth inhibition: MKN45, 72 hours, L3-1Y/IgG2 0-2 ug/ml, PD173074 fixed at 10 uM
Method: (§2) In particular, RPMI1640 medium (GIBCO) containing 10% FBS was put in a 96 well plate. MKN45 gastric cancer cells (JCRB, JCRB0254) were seeded thereon in the amount of 5,000 cells/well, and incubated overnight at 37° C. After 24 hours (the next day), the incubated cells were treated with L3-1Y/IgG2 (Reference Example 1) alone, or co-treated with L3-1Y/IgG2 and a FGFR inhibitor, PD173074. For the single treatment of L3-1Y/IgG2 alone, the concentration of L3-1Y/IgG2 was 0 ug (microgram)/ml, 0.016 ug/ml, 0.08 ug/ml, 0.4 ug/ml, or 2 ug/ml, and for the co-treatment of L3-1Y/IgG2 and PD173074, the concentration of PD173074 was fixed at 10 uM (micromole) which is a concentration of IC20 in MKN45 cell line, and the concentration of L3-1Y/IgG2 was 0 ug/ml, 0.016 ug/ml, 0.08 ug/ml, 0.4 ug/ml, or 2 ug/ml.
as §1, with “uL (microliter)” for “uL”

HT29 colon cancer cells = test: Cell viability (CellTiter Glo) in HT29 colon cancer cell line; assay type: cell-based; conditions: 72 hours, L3-1Y/IgG2 0-2 ug/ml, PD173074 fixed at 5 uM
Method: as §2, with “FBS were” for “FBS was”, “in” for “in a”, “plate. HT29 colon” for “plate. MKN45 gastric”, “cells (ATCC, HTB-38)” for “cells (JCRB, JCRB0254)”, “0 ug/ml,” for “0 ug (microgram)/ml,”, “at 5 uM,” for “at 10 uM (micromole) which is a concentration of IC20 in MKN45 cell line,”
as §1

EBC1 lung cancer cells = test: Cell viability (CellTiter Glo) in EBC1 lung cancer cell line; assay type: cell-based; conditions: 72 hours, L3-1Y/IgG2 0-2 ug/ml, PD173074 10 uM or BGJ398 5 uM
Method: In particular, RPMI1640 medium (GIBCO) containing 10% FBS were put in 96 well plate. EBC1 lung cancer cells (JCRB, JCRB0820) were seeded thereon in the amount of 5,000 cells/well, and incubated overnight at 37° C. After 24 hours (the next day), the incubated cells were treated with L3-1Y/IgG2 (Reference Example 1) alone, or co-treated with L3-1Y/IgG2 and a FGFR inhibitor, PD173074 or BGJ398. For the single treatment of L3-1Y/IgG2 alone, the concentration of L3-1Y/IgG2 was 0 ug/ml, 0.016 ug/ml, 0.08 ug/ml, 0.4 ug/ml, or 2 ug/ml, and for the co-treatment of L3-1Y/IgG2 and PD173074 or BGJ398, the concentration of PD173074 was fixed at 10 uM for PD173074 and 5 uM for BGJ398, and the concentration of L3-1Y/IgG2 was 0 ug/ml, 0.016 ug/ml, 0.08 ug/ml, 0.4 ug/ml, or 2 ug/ml.
as §1

Row | Molecule | cancer cell growth inhibitory effect [1] | cancer cell growth inhibitory effect [2] | tumor inhibition rate, At d21:TV [3] | IC20 ([4]; Homo sapiens, MKN-45, read-out: concentration of IC20 in MKN45 cell line) | cell growth inhibition [4] | cell growth inhibiting effect (HT29 colon cancer cells) | cell growth inhibition (EBC1 lung cancer cells)
1 | CCN1CCN(c2ccc(Nc3cc(N(C)C(=O)Nc4c(Cl)c(OC)cc(OC)c4Cl)ncn3)cc2)CC1 [BGJ398, 3-(2,6-dichloro-3,5-dimethoxyphenyl)-1-(6-(4-(4-ethylpiperazin-1-yl)phenylamino)pyrimidin-4-yl)-1-methylurea, reference compound] | not obtained | not obtained | 1.3% |  |  |  | 
2 | CCN(CC)CCCCNc1ncc2cc(-c3cc(OC)cc(OC)c3)c(NC(=O)NC(C)(C)C)nc2n1 [PD173074, N-[2-[[4-(Diethylamino)butyl]amino]-6-(3,5-dimethoxyphenyl)pyrido[2,3-d]pyrimidin-7-yl]-N′-(1,1-dimethylethyl)urea] | not obtained |  |  | 10 µM | no significant effect on cell growth |  | 
3 | B1 | not obtained | not obtained | 27.8% |  | cell growth inhibition is observed | not observed | cell growth inhibiting effect is observed
